The source made the active and inactive calls. The rule behind the calls is not given here.
Key:
[1] = test system: WM 266-4; assay: Growth inhibition of human WM266.4 cells up to 25 uM cotreated with camptothecin measured after 24 hrs by XTT assay; format: functional, cell-based
[2] = test system: NCI-H1299; assay: Growth inhibition of human NCI-H1299 cells up to 25 uM cotreated with camptothecin measured after 24 hrs by XTT assay; format: functional, cell-based
[3] = test system: A 172; assay: Growth inhibition of human A172 cells up to 25 uM cotreated with camptothecin measured after 24 hrs by XTT assay; format: functional, cell-based
[4] = test system: PC-3; assay: Growth inhibition of human PC3 cells up to 25 uM cotreated with camptothecin measured after 24 hrs by XTT assay; format: functional, cell-based
[5] = test system: MDA-MB-231; assay: Growth inhibition of human MDA-MB-231 cells up to 25 uM cotreated with camptothecin measured after 24 hrs by XTT assay; format: functional, cell-based
[6] = test system: PC-3; assay: Growth inhibition of human PC3 cells preincubated for 6 hrs followed compound washout measured after 24 hrs by XTT assay; format: functional
[7] = test system: MDA-MB-231; assay: Growth inhibition of human MDA-MB-231 cells preincubated for 6 hrs followed compound washout measured after 24 hrs by XTT assay; format: functional
[8] = test system: WM 266-4; assay: Growth inhibition of human WM266.4 cells preincubated for 6 hrs followed compound washout measured after 24 hrs by XTT assay; format: functional
[9] = test system: NCI-H1299; assay: Growth inhibition of human NCI-H1299 cells preincubated for 6 hrs followed compound washout measured after 24 hrs by XTT assay; format: functional
[10] = test system: A 172; assay: Growth inhibition of human A172 cells preincubated for 6 hrs followed compound washout measured after 24 hrs by XTT assay; format: functional
[11] = test system: WM 266-4; assay: Growth inhibition of human WM266.4 cells at 25 uM after 24 hrs by XTT assay; format: functional, cell-based
[12] = test system: WM 266-4; assay: Cell cycle arrest in human WM266.4 cells assessed as accumulation at S phase at 10 uM cotreated with amonafide after 8 hrs by propidium iodide staining based flow cytometry (reference value: 27%); format: functional
[13] = test system: Mus musculus; assay: Toxicity in athymic Foxn1 nu mouse xenografted with human WM266.4 cells assessed as body weight loss at 10 mg/kg, ip cotreated with amonafide administered once daily for 3 days followed by resting period of 4 days repeated for 4 weeks starting from 5 days post tumor inoculation; format: organism-based; conditions: in vivo
[14] = test system: A 172; assay: Growth inhibition of human A172 cells preincubated for 6 hrs cotreated with amonafide followed compound washout measured after 24 hrs by XTT assay; format: functional
[15] = test system: Mus musculus; assay: Toxicity in athymic Foxn1 nu mouse xenografted with human WM266.4 cells assessed as body weight loss at 10 mg/kg, ip cotreated with amonafide administered once daily for 7 days followed by resting period of 2 days repeated for 4 weeks starting from 5 days post tumor inoculation; format: organism-based; conditions: in vivo
[16] = test system: WM 266-4; assay: Cell cycle arrest in human WM266.4 cells assessed as accumulation at S phase at 10 uM cotreated with amonafide after 2 hrs by propidium iodide staining based flow cytometry (reference value: 27%); format: functional
[17] = test system: WM 266-4; assay: Cell cycle arrest in human WM266.4 cells assessed as accumulation at G1 phase at 10 uM cotreated with amonafide after 2 hrs by propidium iodide staining based flow cytometry (reference value: 59%); format: functional
[18] = test system: NCI-H1299; assay: Growth inhibition of human NCI-H1299 cells preincubated for 6 hrs cotreated with amonafide followed compound washout measured after 24 hrs by XTT assay; format: functional
[19] = test system: WM 266-4; assay: Antitumor activity against human WM266.4 cells xenografted in athymic Foxn1 nu mouse assessed as tumor growth inhibition at 10 mg/kg, ip cotreated with amonafide administered once daily for 3 days followed by resting period of 4 days repeated for 4 weeks starting from 5 days post tumor inoculation; format: functional, organism-based
[20] = test system: WM 266-4; assay: Antitumor activity against human WM266.4 cells xenografted in athymic Foxn1 nu mouse assessed as tumor growth inhibition at 10 mg/kg, ip cotreated with amonafide administered once daily for 7 days followed by resting period of 2 days repeated for 4 weeks starting from 5 days post tumor inoculation; format: functional, organism-based
[21] = test system: PC-3; assay: Growth inhibition of human PC3 cells preincubated for 6 hrs cotreated with amonafide followed compound washout measured after 24 hrs by XTT assay; format: functional
[22] = test system: WM 266-4; assay: Growth inhibition of human WM266.4 cells preincubated for 6 hrs cotreated with amonafide followed compound washout measured after 24 hrs by XTT assay; format: functional
[23] = test system: MDA-MB-231; assay: Growth inhibition of human MDA-MB-231 cells preincubated for 6 hrs cotreated with amonafide followed compound washout measured after 24 hrs by XTT assay; format: functional
[24] = test system: WM 266-4; assay: Cell cycle arrest in human WM266.4 cells assessed as accumulation at S phase at 10 uM cotreated with amonafide after 24 hrs by propidium iodide staining based flow cytometry (reference value: 27%); format: functional
[25] = test system: WM 266-4; assay: Cell cycle arrest in human WM266.4 cells assessed as accumulation at G1 phase at 10 uM cotreated with amonafide after 8 hrs by propidium iodide staining based flow cytometry (reference value: 59%); format: functional
[26] = test system: WM 266-4; assay: Cell cycle arrest in human WM266.4 cells assessed as accumulation at G2 phase at 10 uM cotreated with amonafide after 2 hrs by propidium iodide staining based flow cytometry (reference value: 11%); format: functional
[27] = test system: WM 266-4; assay: Cell cycle arrest in human WM266.4 cells assessed as accumulation at G2 phase at 10 uM cotreated with amonafide after 8 hrs by propidium iodide staining based flow cytometry (reference value: 11%); format: functional
[28] = test system: WM 266-4; assay: Cell cycle arrest in human WM266.4 cells assessed as accumulation at G1 phase at 10 uM cotreated with amonafide after 24 hrs by propidium iodide staining based flow cytometry (reference value: 59%); format: functional
[29] = test system: WM 266-4; assay: Cell cycle arrest in human WM266.4 cells assessed as accumulation at G2 phase at 10 uM cotreated with amonafide after 24 hrs by propidium iodide staining based flow cytometry (reference value: 11%); format: functional

COc1cc2c(c(OC)c1OC)-c1ccc(OC)c(=O)cc1[C@@H](NC(C)=O)CC2
growth inhibition (GI) [1]: Active | growth inhibition (GI) [2]: Active | growth inhibition (GI) [3]: Active | growth inhibition (GI) [4]: Active | growth inhibition (GI) [5]: Active

Nc1ccn([C@@H]2O[C@H](COC(=O)CCCc3ccc(N(CCCl)CCCl)cc3)[C@@H](O)[C@@H]2O)c(=O)n1
growth inhibition (GI) [6]: inactive | growth inhibition (GI) [7]: inactive | growth inhibition (GI) [8]: inactive | growth inhibition (GI) [9]: inactive | growth inhibition (GI) [10]: inactive

CC(=O)Nc1cc2c3c(cccc3c1)C(=O)N(CCN(C)C)C2=O
growth inhibition (GI) [11]: inactive

O=C(O)CCCc1ccc(N(CCCl)CCCl)cc1 [CHLORAMBUCIL]
Activity [12]: 44.7% | Activity [13]: Toxic | GI50 [14]: > 25 µM | GI50 [6]: > 25 µM | GI50 [7]: > 25 µM | Activity [15]: Toxic | Activity [16]: 26% | GI50 [8]: > 25 µM | Activity [17]: 63.5% | GI50 [18]: > 25 µM | TGI [19]: inactive | TGI [20]: inactive | GI50 [21]: > 25 µM | GI50 [22]: > 25 µM | GI50 [23]: > 25 µM | Activity [24]: 39% | GI50 [9]: > 25 µM | Activity [25]: 29% | GI50 [10]: > 25 µM | Activity [26]: 9.8% | Activity [27]: 23% | Activity [28]: 35% | Activity [29]: 26%
